This note sets out measurements from ChEMBL document CHEMBL1156404, “Haploscleridamine, a novel tryptamine-derived alkaloid from a sponge of the order haplosclerida: an inhibitor of cathepsin K” (J Nat Prod, 2002).

This test addresses T1, Cathepsin K (Homo sapiens, UniProt P43235).
T1 sequence (P43235 whole entry): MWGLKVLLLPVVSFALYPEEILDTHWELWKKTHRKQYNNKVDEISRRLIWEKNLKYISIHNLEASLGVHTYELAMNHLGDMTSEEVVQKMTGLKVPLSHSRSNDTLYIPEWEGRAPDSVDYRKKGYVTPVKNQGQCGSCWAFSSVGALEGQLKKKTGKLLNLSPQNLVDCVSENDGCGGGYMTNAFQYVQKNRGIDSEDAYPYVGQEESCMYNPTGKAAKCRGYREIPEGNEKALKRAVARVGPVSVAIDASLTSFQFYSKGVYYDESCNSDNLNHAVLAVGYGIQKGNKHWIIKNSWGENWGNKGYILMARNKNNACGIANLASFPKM
Nature of the test: Inhibition of cathepsin K by fluorimetric assay.

For `c1ccc2c3c([nH]c2c1)C(Cc1c[nH]cn1)NCC3` (configuration not stated) [HAPLOSCLERIDAMINE], the IC50 worked out at 26 µM.
With `NCCc1c[nH]c2ccccc12` [TRYPTAMINE] the figure was 15 µM.
